pIC50: −log10 of the molar value.

For 23 compounds, IC50 results are on record in ChEMBL document CHEMBL1157928, “Discovery and structural optimization of pyrazole derivatives as novel inhibitors of Cdc25B” (Bioorg Med Chem Lett, 2010).

The target of one assay is T1, Tyrosine-protein phosphatase non-receptor type 1 (Homo sapiens, UniProt P18031).
T1 sequence (P18031 whole entry): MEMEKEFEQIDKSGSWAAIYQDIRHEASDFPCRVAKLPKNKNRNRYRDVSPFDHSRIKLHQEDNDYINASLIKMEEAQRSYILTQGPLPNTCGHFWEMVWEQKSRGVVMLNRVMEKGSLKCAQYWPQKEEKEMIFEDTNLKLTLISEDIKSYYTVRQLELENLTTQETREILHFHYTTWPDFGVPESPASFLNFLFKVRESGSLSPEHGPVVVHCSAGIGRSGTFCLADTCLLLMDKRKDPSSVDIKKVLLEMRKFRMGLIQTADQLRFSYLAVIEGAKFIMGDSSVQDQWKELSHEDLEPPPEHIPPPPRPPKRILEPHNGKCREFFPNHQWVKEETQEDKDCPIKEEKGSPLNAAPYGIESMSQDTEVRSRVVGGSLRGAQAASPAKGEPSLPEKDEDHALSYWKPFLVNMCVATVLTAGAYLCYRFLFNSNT
In words: Inhibition of PTP1B.
Conditions: not given; call rule not given here
Turning to `CCOC(=O)c1n[nH]c2c1C(=O)N(c1ccc([N+](=O)[O-])cc1)C2=O`, the IC50 result was “Not Active”.

The assay is the same for the next values; noted with them: read-out: IC50.
Regarding `CCCCCCCCCCCCCCCCCC(=O)c1cc(C(=O)Nc2ccccc2C(=O)OC)[nH]n1`, the pIC50 is 5.13.

In the case of `CCCCCCCCCCCCCCCCCC(=O)c1n[nH]c2c1C(=O)N(c1ccccc1)C2=O`, the negative logarithm of the IC50 (pIC50) is 5.81.

Regarding `CCCCCCCCCCCCCCCCCC(=O)c1cc(C(=O)Nc2ccsc2C(=O)O)[nH]n1`, the negative-log IC50 (pIC50) was 6.39.

With `CCCCCCCCCCCCCCCCCC(=O)c1cc(C(=O)Nc2ccsc2C(=O)OC)[nH]n1`, the negative logarithm of the IC50 (pIC50) was 5.15.

Consider `CCCCCCCCCCCCCCCCCC(=O)c1cc(C(=O)Nc2ccccc2C(=O)O)[nH]n1`, for which the negative logarithm of the IC50 (pIC50) is 6.46.

Another assay has as its target T2, M-phase inducer phosphatase 2 (Homo sapiens, UniProt P30305).
T2 sequence (P30305 whole entry): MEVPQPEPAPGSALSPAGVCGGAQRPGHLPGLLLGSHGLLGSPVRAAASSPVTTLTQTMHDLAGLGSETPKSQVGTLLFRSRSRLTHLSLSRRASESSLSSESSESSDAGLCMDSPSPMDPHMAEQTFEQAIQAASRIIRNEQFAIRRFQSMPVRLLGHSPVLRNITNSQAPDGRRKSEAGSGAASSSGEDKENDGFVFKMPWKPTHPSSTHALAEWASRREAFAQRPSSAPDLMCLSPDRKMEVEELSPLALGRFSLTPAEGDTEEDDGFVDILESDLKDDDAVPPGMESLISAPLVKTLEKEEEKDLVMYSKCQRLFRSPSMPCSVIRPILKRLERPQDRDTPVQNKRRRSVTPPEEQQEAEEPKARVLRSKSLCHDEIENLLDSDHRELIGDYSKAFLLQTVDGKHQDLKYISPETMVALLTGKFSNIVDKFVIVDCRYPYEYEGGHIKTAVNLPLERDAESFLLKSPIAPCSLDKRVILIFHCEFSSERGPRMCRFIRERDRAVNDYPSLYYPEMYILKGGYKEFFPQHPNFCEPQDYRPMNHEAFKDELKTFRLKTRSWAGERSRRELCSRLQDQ
As to the kind of experiment: Inhibition of CDC25B.
Conditions: not given
Consider `O=C(c1ccccc1)c1n[nH]c2c1C(=O)N(c1ccc([N+](=O)[O-])cc1)C2=O`, for which the IC50 entry is reported as “Not Active”.

As to `CCOC(=O)c1n[nH]c2c1C(=O)N(c1cccc([N+](=O)[O-])c1)C2=O`, the IC50 result is “Not Active”.

As for `CCOC(=O)c1n[nH]c2c1C(=O)N(c1ccccc1C(=O)OC)C2=O`, the IC50 entry was “Not Active”.

For the compound `CCOC(=O)c1n[nH]c2c1C(=O)N(c1ccc(F)cc1)C2=O`, the IC50 result is listed as “Not Active”.

Consider `CCOC(=O)c1n[nH]c2c1C(=O)N(c1ccc(OC)cc1)C2=O`, for which the IC50 entry was “Not Active”.

As to `CCOC(=O)c1n[nH]c2c1C(=O)N(c1cccc(Cl)c1)C2=O`, the IC50 entry was “Not Active”.

`CCOC(=O)c1n[nH]c2c1C(=O)N(c1cccc(Br)c1)C2=O`: the IC50 result is given as “Not Active”.

Turning to `CCOC(=O)c1n[nH]c2c1C(=O)N(c1ccccc1Cl)C2=O`, the IC50 result is “Not Active”.

Regarding `CCOC(=O)c1n[nH]c2c1C(=O)N(c1ccccc1Br)C2=O`, the IC50 entry is on record as “Not Active”.

With `CCOC(=O)c1n[nH]c2c1C(=O)N(c1ccccc1OC)C2=O`, the IC50 result is “Not Active”.

As to `CCOC(=O)c1n[nH]c2c1C(=O)N(c1cccc(F)c1)C2=O`, the IC50 entry was “Not Active”.

For `CCOC(=O)c1n[nH]c2c1C(=O)N(c1ccccc1F)C2=O`, the IC50 entry is given as “Not Active”.

The same assay, now with this note: read-out: IC50.
Consider `CCCCCCCCCCCCCCCCCC(=O)c1n[nH]c2c1C(=O)N(Cc1ccccc1)C2=O`, for which the pIC50 is 6.14.

For the compound `CCCCCCCCCCCCCCCCCC(=O)c1nn(C)c2c1C(=O)N(c1ccccc1)C2=O`, the pIC50 was 4.52.

On to `CCCCCCCCCCCCCCCCCC(=O)c1n[nH]c2c1C(=O)N(c1cccc([N+](=O)[O-])c1)C2=O`, for which the pIC50 is 5.95.

On to `CCCCCCCCCCCCCCCCCC(=O)c1n[nH]c2c1C(=O)N(c1ccc(OC)cc1)C2=O`, for which the pIC50 was 6.27.

`CCCCCCCCCCCCCCCCCC(=O)c1n[nH]c2c1C(=O)N(c1ccc(C(=O)OC)cc1)C2=O`: the pIC50 was 6.31.

Consider `CCCCCCCCCCCCCCCCCC(=O)c1cc(C(=O)Nc2ccccc2C(=O)OC)[nH]n1`, for which the pIC50 is 5.29.

On to `CCCCCCCCCCCCCCCCCC(=O)c1n[nH]c2c1C(=O)N(c1ccccc1)C2=O`, for which the pIC50 is 6.64.

On to `CCOC(=O)c1n[nH]c2c1C(=O)N(c1ccc([N+](=O)[O-])cc1)C2=O`, for which the pIC50 is 4.50.

For `CCCCCCCCCCCCCCCCCC(=O)c1cc(C(=O)Nc2ccsc2C(=O)O)[nH]n1`, the pIC50 was 6.92.

Regarding `CCCCCCCCCCCCCCCCCC(=O)c1cc(C(=O)Nc2ccsc2C(=O)OC)[nH]n1`, the pIC50 was 5.47.

With `CCCCCCCCCCCCCCCCCC(=O)c1cc(C(=O)Nc2ccccc2C(=O)O)[nH]n1`, the pIC50 is 6.80.

The target in the next assay is Receptor-type tyrosine-protein phosphatase F (Homo sapiens, UniProt P10586). As to the kind of experiment: Inhibition of PTP-LAR.
Chain of Receptor-type tyrosine-protein phosphatase F (P10586 whole entry): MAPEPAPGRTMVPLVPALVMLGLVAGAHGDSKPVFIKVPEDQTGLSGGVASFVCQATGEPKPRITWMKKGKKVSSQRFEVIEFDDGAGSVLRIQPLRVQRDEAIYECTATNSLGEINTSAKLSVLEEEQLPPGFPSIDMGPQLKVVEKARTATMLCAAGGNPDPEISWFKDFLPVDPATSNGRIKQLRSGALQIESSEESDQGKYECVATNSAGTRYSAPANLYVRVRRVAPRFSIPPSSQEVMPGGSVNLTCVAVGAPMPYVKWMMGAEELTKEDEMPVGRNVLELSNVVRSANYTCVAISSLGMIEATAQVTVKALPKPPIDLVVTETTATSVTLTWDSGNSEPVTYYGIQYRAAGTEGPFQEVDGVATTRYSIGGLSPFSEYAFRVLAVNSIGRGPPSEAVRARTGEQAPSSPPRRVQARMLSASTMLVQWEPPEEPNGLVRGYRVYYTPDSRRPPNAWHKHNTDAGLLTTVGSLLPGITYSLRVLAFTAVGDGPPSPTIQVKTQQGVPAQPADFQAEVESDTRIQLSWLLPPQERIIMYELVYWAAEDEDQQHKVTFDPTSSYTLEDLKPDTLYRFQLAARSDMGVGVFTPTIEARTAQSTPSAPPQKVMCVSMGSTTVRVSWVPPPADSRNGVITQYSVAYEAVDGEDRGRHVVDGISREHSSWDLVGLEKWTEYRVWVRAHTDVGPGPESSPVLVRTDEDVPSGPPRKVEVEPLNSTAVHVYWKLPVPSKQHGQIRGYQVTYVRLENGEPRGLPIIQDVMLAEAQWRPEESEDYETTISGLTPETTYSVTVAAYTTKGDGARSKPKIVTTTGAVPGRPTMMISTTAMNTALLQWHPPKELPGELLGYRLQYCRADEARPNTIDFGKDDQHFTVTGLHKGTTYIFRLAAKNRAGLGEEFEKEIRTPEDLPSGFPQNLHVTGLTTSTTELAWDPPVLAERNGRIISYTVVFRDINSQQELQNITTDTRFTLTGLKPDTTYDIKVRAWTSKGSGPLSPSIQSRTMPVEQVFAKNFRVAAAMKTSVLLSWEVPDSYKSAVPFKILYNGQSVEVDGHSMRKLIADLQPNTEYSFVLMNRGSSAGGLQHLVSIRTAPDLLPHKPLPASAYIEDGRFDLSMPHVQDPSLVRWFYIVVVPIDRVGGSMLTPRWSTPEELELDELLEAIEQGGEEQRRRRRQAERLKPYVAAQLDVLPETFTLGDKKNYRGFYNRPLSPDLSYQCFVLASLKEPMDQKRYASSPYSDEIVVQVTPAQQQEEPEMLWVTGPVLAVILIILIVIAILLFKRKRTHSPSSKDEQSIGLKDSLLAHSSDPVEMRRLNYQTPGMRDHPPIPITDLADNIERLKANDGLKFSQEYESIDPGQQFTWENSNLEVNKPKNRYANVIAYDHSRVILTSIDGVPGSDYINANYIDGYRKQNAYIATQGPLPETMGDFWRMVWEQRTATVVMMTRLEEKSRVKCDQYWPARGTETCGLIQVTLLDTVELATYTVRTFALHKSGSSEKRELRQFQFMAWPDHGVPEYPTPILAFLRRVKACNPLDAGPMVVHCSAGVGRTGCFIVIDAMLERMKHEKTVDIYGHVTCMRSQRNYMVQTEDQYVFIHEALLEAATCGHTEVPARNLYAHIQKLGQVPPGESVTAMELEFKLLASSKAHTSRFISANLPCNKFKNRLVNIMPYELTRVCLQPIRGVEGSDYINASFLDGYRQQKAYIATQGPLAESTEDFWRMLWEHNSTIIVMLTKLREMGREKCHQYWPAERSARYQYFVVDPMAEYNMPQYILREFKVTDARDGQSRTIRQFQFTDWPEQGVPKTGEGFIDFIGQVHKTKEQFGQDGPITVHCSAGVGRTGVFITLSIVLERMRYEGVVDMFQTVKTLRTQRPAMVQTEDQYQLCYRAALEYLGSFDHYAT
Conditions: not given
Consider `CCCCCCCCCCCCCCCCCC(=O)c1cc(C(=O)Nc2ccccc2C(=O)OC)[nH]n1`, for which the IC50 entry is “Not Active”.

`CCCCCCCCCCCCCCCCCC(=O)c1n[nH]c2c1C(=O)N(c1ccccc1)C2=O`: the IC50 entry is listed as “Not Active”.

As to `CCOC(=O)c1n[nH]c2c1C(=O)N(c1ccc([N+](=O)[O-])cc1)C2=O`, the IC50 entry is given as “Not Active”.

With `CCCCCCCCCCCCCCCCCC(=O)c1cc(C(=O)Nc2ccsc2C(=O)O)[nH]n1`, the IC50 result is “Not Active”.

As to `CCCCCCCCCCCCCCCCCC(=O)c1cc(C(=O)Nc2ccsc2C(=O)OC)[nH]n1`, the IC50 result was “Not Active”.

Take `CCCCCCCCCCCCCCCCCC(=O)c1cc(C(=O)Nc2ccccc2C(=O)O)[nH]n1`: the IC50 result is “Not Active”.

A further assay has as its target T3, Tyrosine-protein phosphatase non-receptor type 11 (Homo sapiens, UniProt Q06124).
T3 sequence (Q06124 whole entry): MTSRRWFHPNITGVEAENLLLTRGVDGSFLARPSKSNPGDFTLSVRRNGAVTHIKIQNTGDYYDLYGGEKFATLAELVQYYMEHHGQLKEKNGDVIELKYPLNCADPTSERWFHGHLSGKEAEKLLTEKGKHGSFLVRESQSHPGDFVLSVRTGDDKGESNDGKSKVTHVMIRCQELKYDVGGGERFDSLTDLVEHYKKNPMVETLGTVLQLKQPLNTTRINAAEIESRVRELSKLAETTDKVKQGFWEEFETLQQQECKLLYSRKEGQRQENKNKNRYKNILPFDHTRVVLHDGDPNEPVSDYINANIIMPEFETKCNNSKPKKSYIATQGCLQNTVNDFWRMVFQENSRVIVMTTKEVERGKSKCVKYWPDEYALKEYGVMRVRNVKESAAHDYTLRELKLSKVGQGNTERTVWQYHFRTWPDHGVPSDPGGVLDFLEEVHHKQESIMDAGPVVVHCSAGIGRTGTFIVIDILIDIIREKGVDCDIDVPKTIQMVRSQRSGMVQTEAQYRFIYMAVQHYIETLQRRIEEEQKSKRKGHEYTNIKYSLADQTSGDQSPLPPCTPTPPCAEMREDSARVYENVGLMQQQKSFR
As to the kind of experiment: Inhibition of SHP2.
Conditions: not given
For the compound `CCCCCCCCCCCCCCCCCC(=O)c1cc(C(=O)Nc2ccccc2C(=O)OC)[nH]n1`, the IC50 result is given as “Not Active”.

Turning to `CCOC(=O)c1n[nH]c2c1C(=O)N(c1ccc([N+](=O)[O-])cc1)C2=O`, the IC50 result is “Not Active”.

As for `CCCCCCCCCCCCCCCCCC(=O)c1cc(C(=O)Nc2ccsc2C(=O)OC)[nH]n1`, the IC50 result is reported as “Not Active”.

The same assay, now with this note: read-out: IC50.
Consider `CCCCCCCCCCCCCCCCCC(=O)c1n[nH]c2c1C(=O)N(c1ccccc1)C2=O`, for which the negative logarithm of the IC50 (pIC50) is 5.02.

As for `CCCCCCCCCCCCCCCCCC(=O)c1cc(C(=O)Nc2ccsc2C(=O)O)[nH]n1`, the pIC50 is 4.91.

For the compound `CCCCCCCCCCCCCCCCCC(=O)c1cc(C(=O)Nc2ccccc2C(=O)O)[nH]n1`, the pIC50 was 4.82.

For a further assay, the target named is Tyrosine-protein phosphatase non-receptor type 6 (Homo sapiens, UniProt P29350). As to the kind of experiment: Inhibition of SHP1.
Chain of Tyrosine-protein phosphatase non-receptor type 6 (P29350 whole entry): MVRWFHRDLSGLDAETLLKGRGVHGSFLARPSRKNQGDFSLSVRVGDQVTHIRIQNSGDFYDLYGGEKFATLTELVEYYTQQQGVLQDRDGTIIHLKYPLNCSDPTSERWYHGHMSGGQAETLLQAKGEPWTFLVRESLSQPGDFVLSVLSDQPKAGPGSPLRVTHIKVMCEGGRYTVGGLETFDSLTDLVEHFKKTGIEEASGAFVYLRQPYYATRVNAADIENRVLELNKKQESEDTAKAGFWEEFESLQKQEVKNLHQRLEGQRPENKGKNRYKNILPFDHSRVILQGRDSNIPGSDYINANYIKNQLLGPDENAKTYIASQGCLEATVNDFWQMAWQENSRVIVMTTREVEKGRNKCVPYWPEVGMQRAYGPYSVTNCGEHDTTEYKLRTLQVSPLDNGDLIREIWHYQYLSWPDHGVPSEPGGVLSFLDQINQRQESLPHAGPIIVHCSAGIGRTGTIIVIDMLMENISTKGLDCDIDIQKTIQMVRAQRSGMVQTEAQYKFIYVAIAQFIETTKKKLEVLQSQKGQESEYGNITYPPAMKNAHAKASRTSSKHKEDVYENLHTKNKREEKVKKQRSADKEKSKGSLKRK
Conditions: not given
Take `CCCCCCCCCCCCCCCCCC(=O)c1cc(C(=O)Nc2ccccc2C(=O)OC)[nH]n1`: the IC50 result is “Not Active”.

For `CCCCCCCCCCCCCCCCCC(=O)c1n[nH]c2c1C(=O)N(c1ccccc1)C2=O`, the IC50 result is recorded as “Not Active”.

Consider `CCOC(=O)c1n[nH]c2c1C(=O)N(c1ccc([N+](=O)[O-])cc1)C2=O`, for which the IC50 result is reported as “Not Active”.

As for `CCCCCCCCCCCCCCCCCC(=O)c1cc(C(=O)Nc2ccsc2C(=O)OC)[nH]n1`, the IC50 result was “Not Active”.

Staying with this assay, now noted: read-out: IC50.
Turning to `CCCCCCCCCCCCCCCCCC(=O)c1cc(C(=O)Nc2ccsc2C(=O)O)[nH]n1`, the negative-log IC50 (pIC50) is 5.01.

For `CCCCCCCCCCCCCCCCCC(=O)c1cc(C(=O)Nc2ccccc2C(=O)O)[nH]n1`, the pIC50 is 4.97.

A further assay has as its target T4, Tyrosine-protein phosphatase non-receptor type 2 (Homo sapiens, UniProt P17706).
T4 sequence (P17706 whole entry): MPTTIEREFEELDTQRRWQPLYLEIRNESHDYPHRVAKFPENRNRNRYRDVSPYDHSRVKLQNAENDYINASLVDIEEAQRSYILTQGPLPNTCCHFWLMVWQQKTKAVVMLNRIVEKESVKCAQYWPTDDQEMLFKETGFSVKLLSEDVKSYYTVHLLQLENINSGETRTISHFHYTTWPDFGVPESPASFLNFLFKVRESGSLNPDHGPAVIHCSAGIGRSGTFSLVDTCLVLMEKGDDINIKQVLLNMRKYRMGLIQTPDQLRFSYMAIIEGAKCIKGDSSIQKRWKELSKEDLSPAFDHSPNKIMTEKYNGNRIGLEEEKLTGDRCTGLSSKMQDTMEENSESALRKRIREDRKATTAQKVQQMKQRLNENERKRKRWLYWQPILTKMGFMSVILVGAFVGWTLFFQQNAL
As to the kind of experiment: Inhibition of TCPTP.
Conditions: not given
`CCOC(=O)c1n[nH]c2c1C(=O)N(c1ccc([N+](=O)[O-])cc1)C2=O`: the IC50 result was “Not Active”.

The same assay, now with this note: read-out: IC50.
For the compound `CCCCCCCCCCCCCCCCCC(=O)c1cc(C(=O)Nc2ccccc2C(=O)OC)[nH]n1`, the negative-log IC50 (pIC50) was 4.73.

On to `CCCCCCCCCCCCCCCCCC(=O)c1n[nH]c2c1C(=O)N(c1ccccc1)C2=O`, for which the negative-log IC50 (pIC50) was 5.48.

For `CCCCCCCCCCCCCCCCCC(=O)c1cc(C(=O)Nc2ccsc2C(=O)O)[nH]n1`, the negative-log IC50 (pIC50) was 5.94.

For the compound `CCCCCCCCCCCCCCCCCC(=O)c1cc(C(=O)Nc2ccsc2C(=O)OC)[nH]n1`, the pIC50 was 4.73.

`CCCCCCCCCCCCCCCCCC(=O)c1cc(C(=O)Nc2ccccc2C(=O)O)[nH]n1`: the pIC50 was 5.89.
